Key:
[1] = (§1) The drug is tested on Z-030 corresponding to mouse gut metagenome with ENA study accession number: PRJEB37062 and ENA sample accession number: ERS12561829 for biotransformation under anaerobic condition. The drug concentrations were measured over 9 timepoints collected between 0 and 24 hours of incubation by liquid-chromatography-coupled mass spectrometry (LC–MS); conditions: 2 µM
[2] = as §1, with “Z-029” for “Z-030”, “rat” for “mouse”, “ERS12561828” for “ERS12561829”; conditions: 2 µM
[3] = as §1, with “Z-027” for “Z-030”, “to” for “to mouse gut”, “ERS12561826” for “ERS12561829”; conditions: 2 µM
[4] = as §1, with “Z-018” for “Z-030”, “pig” for “mouse”, “ERS12561817” for “ERS12561829”; conditions: 2 µM
[5] = as §1, with “Z-014” for “Z-030”, “rat” for “mouse”, “ERS12561814” for “ERS12561829”; conditions: 2 µM
[6] = as §1, with “Z-009” for “Z-030”, “pig” for “mouse”, “ERS12561809” for “ERS12561829”; conditions: 2 µM
[7] = as §1, with “Z-008” for “Z-030”, “to” for “to mouse gut”, “ERS12561808” for “ERS12561829”; conditions: 2 µM
[8] = as §1, with “Z-007” for “Z-030”, “rat” for “mouse”, “ERS12561807” for “ERS12561829”; conditions: 2 µM
[9] = as §1, with “Z-003” for “Z-030”, “pig” for “mouse”, “ERS12561803” for “ERS12561829”; conditions: 2 µM
[10] = as §1, with “Z-001” for “Z-030”, “ERS12561801” for “ERS12561829”; conditions: 2 µM
[11] = as §1, with “WLS-370” for “Z-030”, “human” for “mouse”, “ERS12561793” for “ERS12561829”; conditions: 2 µM
[12] = as §1, with “WLS-098” for “Z-030”, “human” for “mouse”, “ERS12561754” for “ERS12561829”; conditions: 2 µM
[13] = as §1, with “WLS-082” for “Z-030”, “human” for “mouse”, “ERS12561751” for “ERS12561829”; conditions: 2 µM
[14] = as §1, with “WLS-073” for “Z-030”, “human” for “mouse”, “ERS12561749” for “ERS12561829”; conditions: 2 µM
[15] = as §1, with “WLS-069” for “Z-030”, “human” for “mouse”, “ERS12561748” for “ERS12561829”; conditions: 2 µM
[16] = human gut metagenome, 24 h, 2 µM
[17] = human gut metagenome, 24 h, 2 µM; remark: listed apart in the source
[18] = human gut metagenome, 24 h, 2 µM; remark: listed apart in the source
[19] = human gut metagenome, 24 h, 2 µM; remark: listed apart in the source
[20] = human gut metagenome, 24 h, 2 µM; remark: listed apart in the source
Also: call rule not given here.

SMILES	Bacterial Biotransformation [1]	Bacterial Biotransformation [2]	Bacterial Biotransformation [3]	Bacterial Biotransformation [4]	Bacterial Biotransformation [5]	Bacterial Biotransformation [6]	Bacterial Biotransformation [7]	Bacterial Biotransformation [8]	Bacterial Biotransformation [9]	Bacterial Biotransformation [10]	Bacterial Biotransformation [11]	Bacterial Biotransformation [12]	Bacterial Biotransformation [13]	Bacterial Biotransformation [14]	Bacterial Biotransformation [15]	Bacterial Biotransformation [16]	Bacterial Biotransformation [17]	Bacterial Biotransformation [18]	Bacterial Biotransformation [19]	Bacterial Biotransformation [20]
OCCN(CCO)c1nc(N2CCCCC2)c2nc(N(CCO)CCO)nc(N3CCCCC3)c2n1 [DIPYRIDAMOLE]	Compound NOT metabolized	Compound NOT metabolized	Compound metabolized	Compound metabolized	Compound NOT metabolized	Compound metabolized	Compound NOT metabolized	Compound NOT metabolized	Compound metabolized	Compound NOT metabolized	Compound metabolized	Compound metabolized	Compound NOT metabolized	Compound NOT metabolized	Compound metabolized	Compound metabolized	Compound metabolized	Compound metabolized	Compound metabolized	Compound metabolized
CCN(CC)C(=O)C1(c2ccccc2)CC1CN (stereo not given)	Compound NOT metabolized	Compound NOT metabolized	Compound NOT metabolized	Compound NOT metabolized	Compound NOT metabolized	Compound NOT metabolized	Compound NOT metabolized	Compound NOT metabolized	Compound NOT metabolized	Compound NOT metabolized	Compound NOT metabolized	Compound NOT metabolized	Compound NOT metabolized	Compound NOT metabolized	Compound NOT metabolized	Compound NOT metabolized	Compound NOT metabolized	Compound NOT metabolized	Compound NOT metabolized	Compound NOT metabolized
CC(C)C[C@H]1C(=O)N2CCC[C@H]2[C@]2(O)O[C@](NC(=O)[C@@H]3C=C4c5cccc6[nH]c(Br)c(c56)C[C@H]4N(C)C3)(C(C)C)C(=O)N12.CS(=O)(=O)O [BROMOCRIPTINE MESYLATE]	Compound metabolized	Compound metabolized	Compound metabolized	Compound metabolized	Compound metabolized	Compound metabolized	Compound metabolized	Compound metabolized	Compound metabolized	Compound metabolized	Compound metabolized	Compound metabolized	Compound metabolized	Compound metabolized	Compound metabolized	Compound metabolized	Compound metabolized	Compound metabolized	Compound NOT metabolized	Compound metabolized
CC(C)[C@H]1CC[C@H](C(=O)N[C@H](Cc2ccccc2)C(=O)O)CC1 [NATEGLINIDE]	Compound NOT metabolized	Compound NOT metabolized	Compound metabolized	Compound metabolized	Compound NOT metabolized	Compound metabolized	Compound NOT metabolized	Compound NOT metabolized	Compound metabolized	Compound NOT metabolized	Compound metabolized	Compound metabolized	Compound metabolized	Compound metabolized	Compound metabolized	Compound metabolized	Compound metabolized	Compound metabolized	Compound metabolized	Compound metabolized
CCN(CC)CCNC(=O)c1ccc(NC(C)=O)cc1 [ACECAINIDE]	Compound NOT metabolized	Compound NOT metabolized	Compound NOT metabolized	Compound NOT metabolized	Compound NOT metabolized	Compound NOT metabolized	Compound NOT metabolized	Compound NOT metabolized	Compound NOT metabolized	Compound NOT metabolized	Compound NOT metabolized	Compound metabolized	Compound NOT metabolized	Compound NOT metabolized	Compound NOT metabolized	Compound NOT metabolized	Compound NOT metabolized	Compound metabolized	Compound NOT metabolized	Compound metabolized
CC(=O)CCCCn1c(=O)c2c(ncn2C)n(C)c1=O [PENTOXIFYLLINE]	Compound NOT metabolized	Compound NOT metabolized	Compound NOT metabolized	Compound NOT metabolized	Compound NOT metabolized	Compound NOT metabolized	Compound NOT metabolized	Compound NOT metabolized	Compound NOT metabolized	Compound NOT metabolized	Compound NOT metabolized	Compound metabolized	Compound NOT metabolized	Compound NOT metabolized	Compound NOT metabolized	Compound NOT metabolized	Compound NOT metabolized	Compound metabolized	Compound NOT metabolized	Compound metabolized
CCCN(CCC)CCc1cccc2c1CC(=O)N2 [ROPINIROLE]	Compound NOT metabolized	Compound NOT metabolized	Compound NOT metabolized	Compound metabolized	Compound NOT metabolized	Compound NOT metabolized	Compound NOT metabolized	Compound NOT metabolized	Compound metabolized	Compound NOT metabolized	Compound NOT metabolized	Compound metabolized	Compound NOT metabolized	Compound NOT metabolized	Compound NOT metabolized	Compound NOT metabolized	Compound NOT metabolized	Compound metabolized	Compound NOT metabolized	Compound metabolized
CCCN1C[C@H](CSC)C[C@@H]2c3cccc4[nH]cc(c34)C[C@H]21.CS(=O)(=O)O [PERGOLIDE MESYLATE]	Compound NOT metabolized	Compound NOT metabolized	Compound NOT metabolized	Compound NOT metabolized	Compound NOT metabolized	Compound NOT metabolized	Compound NOT metabolized	Compound NOT metabolized	Compound NOT metabolized	Compound NOT metabolized	Compound metabolized	Compound NOT metabolized	Compound NOT metabolized	Compound NOT metabolized	Compound NOT metabolized	Compound NOT metabolized	Compound NOT metabolized	Compound NOT metabolized	Compound NOT metabolized	Compound NOT metabolized

Reference: ChEMBL document CHEMBL5724914, “Linking interpersonal differences in gut microbiota composition and drug biotransformation activity” (2024)
